Legend:
[1] = target: T1, human progesterone receptor A (Homo sapiens, UniProt P06401); experiment: Progesterone receptor-antagonistic action in stably transfected SK-N-MC cells with MMTV-LUC reporter (PR-A); format: cell-based; conditions: antagonistic potency against 0.1 nmol/l promegestone, 24 hours, luciferase
T1 construct: expressed in transfected cells; host or cells: SK-N-MC human neuroblastoma cells, stably transfected with pRChPR-A-neo and pMMTV-LUC
T1 sequence (P06401 1-769 isoform P06401-2): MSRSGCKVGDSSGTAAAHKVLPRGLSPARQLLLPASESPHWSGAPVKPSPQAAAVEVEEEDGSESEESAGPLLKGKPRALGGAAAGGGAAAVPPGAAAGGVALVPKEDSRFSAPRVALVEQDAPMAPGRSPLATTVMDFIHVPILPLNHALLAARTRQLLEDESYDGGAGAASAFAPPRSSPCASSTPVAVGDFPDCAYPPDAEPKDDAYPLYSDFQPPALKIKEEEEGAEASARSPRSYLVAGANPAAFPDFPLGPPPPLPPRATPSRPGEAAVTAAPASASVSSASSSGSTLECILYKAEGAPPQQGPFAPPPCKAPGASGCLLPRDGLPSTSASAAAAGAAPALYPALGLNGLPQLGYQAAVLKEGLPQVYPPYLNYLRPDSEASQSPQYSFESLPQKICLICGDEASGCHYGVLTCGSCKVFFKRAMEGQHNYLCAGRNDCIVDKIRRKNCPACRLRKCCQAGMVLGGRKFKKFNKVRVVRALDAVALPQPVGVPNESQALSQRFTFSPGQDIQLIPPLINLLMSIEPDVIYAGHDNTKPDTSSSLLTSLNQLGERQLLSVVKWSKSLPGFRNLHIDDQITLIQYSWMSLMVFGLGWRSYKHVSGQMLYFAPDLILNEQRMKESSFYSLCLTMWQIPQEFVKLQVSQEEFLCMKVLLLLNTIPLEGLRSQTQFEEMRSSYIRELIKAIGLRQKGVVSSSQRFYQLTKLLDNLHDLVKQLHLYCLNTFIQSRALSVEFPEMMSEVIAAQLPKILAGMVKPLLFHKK
Experimental: (§1) Determination of Progesterone Receptor-Antagonistic Action in Stable Transfectants of Human Neuroblastoma Cells (SK-N-MC Cells) with the Human Progesterone A or Progesterone B Receptor and an MN-LUC Reporter Construct
(§2) SK-N-MC cells (human neuroblastoma cells) which have been stably transfected with plasmids expressing the human progesterone receptor B (pRChPR-B-neo) or the human progesterone receptor A (pRChPR-A-neo) and a reporter construct (pMMTV-LUC) were incubated for 24 hours either in the absence (negative control) or in the presence of ascending amounts of the particular test compound (0.01 nmol/l, 0.1 nmol/l, 1 nmol/l, 10 nmol/l, 100 nmol/l and […]), in order to determine the agonistic efficacy. As a positive control of the reporter gene induction, the cells were treated with the synthetic gestagen promegestone (0.01 nmol/l, 0.1 nmol/l, 1 nmol/l, 10 nmol/l, 100 nmol/l and […]). To determine the antagonistic activity, the cells were treated with 0.1 nmol/l promegestone and additionally with ascending amounts of the particular test compound (0.01 nmol/l, 0.1 nmol/l, 1 nmol/l, 10 nmol/l, 100 nmol/l and […]). The activity of the reporter gene LUC (LUC=luciferase) was determined in the cell lysates and measured as RLU (relative light units). All measurements are reported as % efficacy and as EC50 and IC50 concentrations.

[2] = target: T2, human progesterone receptor B (Homo sapiens, UniProt P06401); experiment: Progesterone receptor-antagonistic action in stably transfected SK-N-MC cells with MMTV-LUC reporter (PR-B); format: cell-based; conditions: antagonistic potency against 0.1 nmol/l promegestone, 24 hours, luciferase
T2 construct: expressed in transfected cells; host or cells: SK-N-MC human neuroblastoma cells, stably transfected with pRChPR-B-neo and pMMTV-LUC
T2 sequence (P06401 1-933): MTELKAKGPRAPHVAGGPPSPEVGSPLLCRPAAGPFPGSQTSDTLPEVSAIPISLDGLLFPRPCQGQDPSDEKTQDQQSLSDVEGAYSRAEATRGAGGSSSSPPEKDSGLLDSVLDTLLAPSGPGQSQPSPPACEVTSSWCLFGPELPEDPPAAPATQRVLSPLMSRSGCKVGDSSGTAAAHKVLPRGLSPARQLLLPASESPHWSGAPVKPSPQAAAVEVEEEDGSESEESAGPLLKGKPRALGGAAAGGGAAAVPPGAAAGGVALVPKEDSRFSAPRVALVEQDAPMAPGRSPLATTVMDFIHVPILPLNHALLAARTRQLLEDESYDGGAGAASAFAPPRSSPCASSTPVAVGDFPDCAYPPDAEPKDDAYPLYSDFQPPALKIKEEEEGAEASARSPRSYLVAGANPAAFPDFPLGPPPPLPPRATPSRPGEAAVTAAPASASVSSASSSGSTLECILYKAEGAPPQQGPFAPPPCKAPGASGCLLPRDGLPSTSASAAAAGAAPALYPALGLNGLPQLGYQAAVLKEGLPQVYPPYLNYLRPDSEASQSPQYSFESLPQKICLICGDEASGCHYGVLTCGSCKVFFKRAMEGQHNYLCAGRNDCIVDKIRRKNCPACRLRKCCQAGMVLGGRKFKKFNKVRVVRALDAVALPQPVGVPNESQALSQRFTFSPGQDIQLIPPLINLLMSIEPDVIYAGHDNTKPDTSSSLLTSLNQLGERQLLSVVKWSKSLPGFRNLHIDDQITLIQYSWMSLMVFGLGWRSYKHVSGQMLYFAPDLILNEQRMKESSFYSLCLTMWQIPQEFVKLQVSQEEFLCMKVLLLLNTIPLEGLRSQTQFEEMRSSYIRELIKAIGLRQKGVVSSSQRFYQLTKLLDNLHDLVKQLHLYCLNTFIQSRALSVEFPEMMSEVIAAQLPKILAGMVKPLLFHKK
Experimental: as §1, §2

Question: How did the IC50 [1] turn out when `Cc1nc2cc(/C=C/c3cccc([C@H]4C[C@@]5(C)[C@@H](CC[C@@]5(O)C(F)(F)C(F)(F)F)[C@@H]5CCC6=CC(=O)CCC6=C54)c3)ccc2s1` [Example 25, (8S,11R,13S,14S,17S)-17-hydroxy-13-methyl-11-{3-[(E)-2-(2-methylbenzothiazol-5-yl)vinyl]phenyl}-17-pentafluoroethyl-1,2,6,7,8,11,12,13,14,15,16,17-dodecahydrocyclopenta[a]phenanthren-3-one] was run?
Answer: The IC50 was 1 nM.

Question: What about the IC50 [2] of the same molecule?
Answer: The IC50 was 2 nM.

Question: `CCOC(=O)CNC(=O)NC/C=C/c1ccc([C@H]2C[C@@]3(C)C(CC[C@@]3(O)C(F)(F)C(F)(F)F)C3CCC4=CC(=O)CCC4=C32)cc1` (stereo partly drawn) [Example 51, 3-(3-{(E)-3-[4-((8S,11R,13S,14S,17S)-17-hydroxy-13-methyl-3-oxo-17-pentafluoroethyl-2,3,6,7,8,11,12,13,14,15,16,17-dodecahydro-1H-cyclopenta[a]phenanthren-11-yl)phenyl]allyl}ureido)acetic acid ethyl ester] was tested. Which IC50 [1] did it give?
Answer: Its IC50 is 0.1 nM.

Question: And the IC50 [2]?
Answer: The IC50 was 0.1 nM.

Question: With `COC(=O)c1cccc(/C=C/c2ccc([C@H]3C[C@@]4(C)[C@@H](CC[C@@]4(O)C(F)(F)C(F)(F)F)[C@@H]4CCC5=CC(=O)CCC5=C43)cc2)c1` [Example 30, 3-{(E)-2-[4-((8S,11R,13S,14S,17S)-17-hydroxy-13-methyl-3-oxo-17-pentafluoroethyl-2,3,6,7,8,11,12,13,14,15,16,17-dodecahydro-1H-cyclopenta[a]phenanthren-11-yl)phenyl]vinyl}benzoic acid methyl ester] as the molecule, how does the IC50 [1] read?
Answer: The IC50 was 0.09 nM.

Question: What about the IC50 [2] of the same molecule?
Answer: Its IC50 is 0.08 nM.

Question: What does the source list for `CSc1ccc(/C=C/c2ccc([C@H]3C[C@@]4(C)[C@@H](CC[C@@]4(O)C(F)(F)C(F)(F)F)[C@@H]4CCC5=CC(=O)CCC5=C43)cc2)cc1` [Example 33, (8S,11R,13S,14S,17S)-17-hydroxy-13-methyl-11-{4-[(E)-2-(4-methylsulphanylphenyl)vinyl]phenyl}-17-pentafluoroethyl-1,2,6,7,8,11,12,13,14,15,16,17-dodecahydrocyclopenta[a]phenanthren-3-one]?
Answer: IC50 [1]: 0.1 nM; IC50 [2]: 0.8 nM

Question: Which results are given for `Cc1noc(C)c1NC(=O)NC/C=C/c1ccc([C@H]2C[C@@]3(C)[C@@H](CC[C@@]3(O)C(F)(F)C(F)(F)F)[C@@H]3CCC4=CC(=O)CCC4=C32)cc1` [Example 48, 1-(3,5-dimethylisoxazol-4-yl)-3-{(E)-3-[4-((8S,11R,13S,14S,17S)-17-hydroxy-13-methyl-3-oxo-17-pentafluoroethyl-2,3,6,7,8,11,12,13,14,15,16,17-dodecahydro-1H-cyclopenta[a]phenanthren-11-yl)phenyl]allyl}urea]?
Answer: IC50 [1]: 0.09 nM; IC50 [2]: 0.03 nM

Question: How did the IC50 [1] turn out when `C[C@]12C[C@H](c3ccc(/C=N/OCC(=O)O)cc3)C3=C4CCC(=O)C=C4CC[C@H]3[C@@H]1CC[C@@]2(O)C(F)(F)C(F)(F)F` [Example 34, [1-[4-((8S,11R,13S,14S,17S)-17-hydroxy-13-methyl-3-oxo-17-pentafluoroethyl-2,3,6,7,8,11,12,13,14,15,16,17-dodecahydro-1H-cyclopenta[a]phenanthren-11-yl)phenyl]meth-(E)-ylideneaminooxy]acetic acid] was run?
Answer: Its IC50 is 3.9 nM.

Question: What about the IC50 [2] of the same molecule?
Answer: Its IC50 is 2.8 nM.

Question: Which IC50 [1] does the source give for `C=Cc1cccc([C@H]2C[C@@]3(C)[C@@H](CC[C@@]3(O)C(F)(F)C(F)(F)F)[C@@H]3CCC4=CC(=O)CCC4=C32)c1` [Example 19, (8S,11R,13S,14S,17S)-17-hydroxy-13-methyl-17-pentafluoroethyl-11-(3-vinylphenyl)-1,2,6,7,8,11,12,13,14,15,16,17-dodecahydrocyclopenta[a]phenanthren-3-one] here?
Answer: Its IC50 is 3 nM.

Question: What about the IC50 [2] of the same molecule?
Answer: The IC50 was 3 nM.

Question: Which results are given for `C[C@]12C[C@H](c3ccc(/C=C/CNC(=O)NCC(=O)O)cc3)C3=C4CCC(=O)C=C4CCC3C1CC[C@@]2(O)C(F)(F)C(F)(F)F` (stereo partly drawn) [Example 52, 3-(3-{(E)-3-[4-((8S,11R,13S,14S,17S)-17-hydroxy-13-methyl-3-oxo-17-pentafluoroethyl-2,3,6,7,8,11,12,13,14,15,16,17-dodecahydro-1H-cyclopenta[a]phenanthren-11-yl)phenyl]allyl}ureido)acetic acid]?
Answer: IC50 [1]: 3 nM; IC50 [2]: 2 nM

Question: Which results are given for `C=CCNC(=O)NC/C=C/c1ccc([C@H]2C[C@@]3(C)[C@@H](CC[C@@]3(O)C(F)(F)C(F)(F)F)[C@@H]3CCC4=CC(=O)CCC4=C32)cc1` [Example 57, 1-allyl-3-{(E)-3-[4-((8S,11R,13S,14S,17S)-17-hydroxy-13-methyl-3-oxo-17-pentafluoroethyl-2,3,6,7,8,11,12,13,14,15,16,17-dodecahydro-1H-cyclopenta[a]phenanthren-11-yl)phenyl]allyl}urea]?
Answer: IC50 [1]: 0.09 nM; IC50 [2]: 0.1 nM

Question: For `CCOC(=O)CCNC(=O)NC/C=C/c1ccc([C@H]2C[C@@]3(C)C(CC[C@@]3(O)C(F)(F)C(F)(F)F)C3CCC4=CC(=O)CCC4=C32)cc1` (stereo partly drawn) [Example 49, (3-{(E)-3-[4-((8S,11R,13S,14S,17S)-17-hydroxy-13-methyl-3-oxo-17-pentafluoroethyl-2,3,6,7,8,11,12,13,14,15,16,17-dodecahydro-1H-cyclopenta[a]phenanthren-11-yl)phenyl]allyl}ureido)propionic acid ethyl ester], which IC50 [1] is on record?
Answer: The IC50 was 0.1 nM.

Question: And the IC50 [2]?
Answer: Its IC50 is 0.3 nM.

Question: With `CC(C)(C)NC(=O)NC/C=C/c1ccc([C@H]2C[C@@]3(C)C(CC[C@@]3(O)C(F)(F)C(F)(F)F)C3CCC4=CC(=O)CCC4=C32)cc1` (some centres unmarked) [Example 41] as the molecule, how does the IC50 [1] read?
Answer: The IC50 was 0.1 nM.

Question: And the IC50 [2]?
Answer: The IC50 was 0.1 nM.

Question: `CCOC(=O)c1ccc(NC(=O)NC/C=C/c2ccc([C@H]3C[C@@]4(C)[C@@H](CC[C@@]4(O)C(F)(F)C(F)(F)F)[C@@H]4CCC5=CC(=O)CCC5=C43)cc2)cc1` [Example 55, 4-(3-{(E)-3-[4-((8S,11R,13S,14S,17S)-17-hydroxy-13-methyl-3-oxo-17-pentafluoroethyl-2,3,6,7,8,11,12,13,14,15,16,17-dodecahydro-1H-cyclopenta[a]phenanthren-11-yl)phenyl]allyl}ureido)benzoic acid ethyl ester] was tested. Which IC50 [1] did it give?
Answer: The IC50 was 0.1 nM.

Question: What about the IC50 [2] of the same molecule?
Answer: The IC50 was 0.09 nM.

Question: Which IC50 [1] does the source give for `C=C(C)c1cccc([C@H]2C[C@@]3(C)[C@@H](CC[C@@]3(O)C(F)(F)C(F)(F)F)[C@@H]3CCC4=CC(=O)CCC4=C32)c1` [Example 20, (8S,11R,13S,14S,17S)-17-hydroxy-11-(3-isopropenylphenyl)-13-methyl-17-pentafluoroethyl-1,2,6,7,8,11,12,13,14,15,16,17-dodecahydrocyclopenta[a]phenanthren-3-one] here?
Answer: Its IC50 is 9 nM.

Question: And the IC50 [2]?
Answer: The IC50 was 11 nM.

Reference: US9156877B2, “17-hydroxy-17-pentafluorethyl-estra-4,9(10)-dien-11-benzylidene derivatives, methods for the production thereof and use thereof for treating diseases” (Bayer Intellectual Property GmbH, priority 2009, dated 2015)
